Reference: patent US8383636B2, “Acyclic amine inhibitors of 5-methytioadenosine phosphorylase and nucleosidase” (priority 2006, dated 2013)

Assays:
human MTAP = molecular target: T1, human MTAP (Homo sapiens, UniProt Q13126); experiment: Inhibition constants with MTAP (continuous spectrophotometric assay); format: biochemical
T1 construct: made in house
T1 sequence (Q13126 1-283): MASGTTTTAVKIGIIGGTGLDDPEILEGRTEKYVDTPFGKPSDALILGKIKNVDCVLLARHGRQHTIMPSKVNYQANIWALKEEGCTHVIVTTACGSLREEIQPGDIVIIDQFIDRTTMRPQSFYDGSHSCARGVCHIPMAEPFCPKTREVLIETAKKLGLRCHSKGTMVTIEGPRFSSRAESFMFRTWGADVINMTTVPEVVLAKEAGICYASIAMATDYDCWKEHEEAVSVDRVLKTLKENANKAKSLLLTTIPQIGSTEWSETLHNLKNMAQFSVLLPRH
Protocol: After removal of cell debris by centrifugation, the soluble cell lysates were loaded onto nickel-charged chelating sepharose (GE Healthcare) and washed with lysis buffer containing 20-150 mM imidazole. The 6His-MTANs were eluted in 250 mM imidazole, desalted using a Sephadex G-15 (GE Healthcare) gel filtration column, equilibrated with low salt buffer (100 mM HEPES, 30 mM KCL, pH 7.6) and concentrated to 40 mg/mL.
Continuous spectrophotometric assays were used to characterize the inhibitors of the invention and […] inhibition of MTAP.

E. coli MTAN = molecular target: T2, E. coli MTAN (Escherichia coli, UniProt P0AF12); experiment: Inhibition constants with E. coli MTAN (xanthine oxidase-coupled assay); format: biochemical; conditions: 25° C., pH 7.5, MTA as substrate
T2 construct: made in house
T2 sequence (P0AF12 whole entry): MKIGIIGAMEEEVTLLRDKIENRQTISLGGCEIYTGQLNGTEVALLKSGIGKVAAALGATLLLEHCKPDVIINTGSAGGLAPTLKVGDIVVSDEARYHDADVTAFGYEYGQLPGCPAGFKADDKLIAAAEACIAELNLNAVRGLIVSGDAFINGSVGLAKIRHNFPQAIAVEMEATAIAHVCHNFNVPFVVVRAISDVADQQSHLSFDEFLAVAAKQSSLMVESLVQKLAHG
Protocol: (§1) E. coli MTAN and human MTAP were obtained according to the reported methods (Singh, et al, Biochemistry 44, 11647-11659 (2005); Singh and Schramm J. Am. Chem. Soc. 128, 14691-14696 (2006). The MTAN gene sequences from N. meningitides MC58 and H. pylori J99 were amplified from genomic DNA (ATCC) and cloned into a modified pET-32 vector to direct high-level expression of MTAN with a non-cleavable N-terminal 6His tag. 1.5 L cultures of BL21(DE3) harbouring MTAN constructs were induced with 0.5 mM IPTG for 20 hours at 25° C. with vigorous shaking. Cell pellets were washed and lysed in 40 mL lysis buffer (25 mM HEPES, 0.5M NaCl, 10 mM imidazole pH 7.6, protease inhibitors and 0.25 mM TCEP) with the use of a cell disrupter at 15K psi. After removal of cell debris by centrifugation, the soluble cell lysates were loaded onto nickel-charged chelating sepharose (GE Healthcare) and washed with lysis buffer containing 20-150 mM imidazole. The 6His-MTANs were eluted in 250 mM imidazole, desalted using a Sephadex G-15 (GE Healthcare) gel filtration column, equilibrated with low salt buffer (100 mM HEPES, 30 mM KCL, pH 7.6) and concentrated to 40 mg/mL.
(§2) Inhibitor concentrations were obtained from the absorbance at 274 nm with extinction coefficient of 8.5 mM^−1 cm^−1 for 9-deazaadenine moiety.
(§3) MTAN activities were assayed as reported previously (Singh et al (2006) Biochemistry 45, 12929-12941; Singh, et al (2005) J. Biol. Chem. 280, 18265-18273). Briefly, all experiments were carried out at 25° C., in 1 mL total reaction volume containing 100 mM HEPES buffer, pH 7.5 and 50 mM KCl with 5′-deoxymethylthioadenosine (MTA) as substrate. Kinetic constants (kcat and Km) were determined by monitoring MTA hydrolysis at 274 nm where ΔεMTA=1.6 mM^−1 cm^−1. For measuring dissociation constant (Kd) of inhibitors, a xanthine oxidase-coupled assay was carried out. In this assay, saturating levels (1-2 mM) of MTA and various concentrations of inhibitor were mixed with xanthine oxidase (0.5 unit/mL), which is used to convert the MTAN product adenine to 2,8-dihydroxyadenine (ε2,8-dihydroxadenine=15.2 mM^−1 cm^−1 at 293 nm). Reactions were initiated by the addition of 8-10 nM MTAN, and the absorbance at 293 was monitored. Control experiments were carried out in the absence of either inhibitor or MTAN.
(§4) [formula] where vs′ and vs are steady state rates in the presence, and absence of inhibitor, respectively; Km is substrate Michaelis constant which was obtained as described above; [S] and [I] are the concentrations of the substrate MTA and inhibitor, respectively. […] All data fitting was carried out with KaleidaGraph™ ver. 3.5 (Synergy Software).

N. meningitides MTAN = N. meningitides MTAN (Neisseria meningitidis, UniProt Q9K054); experiment: Inhibition constants with N. meningitides MTAN (xanthine oxidase-coupled assay); format: biochemical, N. meningitides MC58; conditions: 25° C., pH 7.5, MTA as substrate
Sequence of N. meningitides MTAN (Q9K054 entry or part of it): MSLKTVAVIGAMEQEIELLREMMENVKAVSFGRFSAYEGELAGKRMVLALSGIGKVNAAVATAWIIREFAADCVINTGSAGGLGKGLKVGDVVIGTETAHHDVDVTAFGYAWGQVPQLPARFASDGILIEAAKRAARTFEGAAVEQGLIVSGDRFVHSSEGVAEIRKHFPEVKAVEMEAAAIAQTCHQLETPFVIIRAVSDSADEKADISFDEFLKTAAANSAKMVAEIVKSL
Protocol: as §1, §2, §3, §4

Row | Compound | Kd (human MTAP) [nM] | Kd (E. coli MTAN) [nM] | Kd (N. meningitides MTAN) [nM]
1 | CSC[C@H](O)[C@@H](CO)CNCc1c[nH]c2c(N)ncnc12 (racemic) [Example 9, (2RS,3RS)-2-{[(4-amino-5H-pyrrolo[3,2-d]pyrimidin-7-yl)methylamino]methyl}-4-(methylthio)butane-1,3-diol] | 278 ± 27 | 25 ± 2 | 12.8 ± 0.9
2 | CSCC(CO)(CO)NCc1c[nH]c2c(N)ncnc12 [Example 1, 2-((4-amino-5H-pyrrolo[3,2-d]pyrimidin-7-yl)methylamino)-2-(methylthiomethyl)propane-1,3-diol] | 34 ± 24 | 5.8 ± 0.8 | 4 ± 2
3 | CSC[C@@H](O)CNCc1c[nH]c2c(N)ncnc12 [Example 2, (S)-1-((4-amino-5H-pyrrolo[3,2-d]pyrimidin-7-yl)methylamino)-3-(methylthio)propan-2-ol] | 60 ± 8 | 4 ± 0.5 | 3.6 ± 0.4
4 | CSC[C@@H](O)[C@@H](CO)N(C)Cc1c[nH]c2c(N)ncnc12 [Example 8, (2R,3S)-2-(((4-amino-5H-pyrrolo[3,2-d]pyrimidin-7-yl)methyl)(methyl)amino)-4-(methylthio)butane-1,3-diol] | 88 ± 21 | 62 ± 5 | 19.3 ± 0.3
5 | CSC[C@H](O)[C@H](CO)NCc1c[nH]c2c(N)ncnc12 [Example 7, (2S,3R)-2-((4-amino-5H-pyrrolo[3,2-d]pyrimidin-7-yl)methylamino)-4-(methylthio)butane-1,3-diol] | 87 ± 11 |  | 
6 | CSC[C@@H](CNCc1c[nH]c2c(N)ncnc12)[C@@H](O)CO (racemic) [Example 3, (2RS,3SR)-4-[(4-amino-5H-pyrrolo[3,2-d]pyrimidin-7-yl)methylamino]-3-(methylthiomethyl)butane-1,2-diol] |  | 9 ± 2 | 5 ± 1
7 | CSC[C@H](O)[C@@H](CO)CN(C)Cc1c[nH]c2c(N)ncnc12 (racemic) [Example 10, (2RS,3RS)-2-((((4-amino-5H-pyrrolo[3,2-d]pyrimidin-7-yl)methyl)(methyl)amino)methyl)-4-(methylthio)butane-1,3-diol] |  | 65 ± 6 | 132 ± 9
8 | CSC[C@H](O)[C@@H](O)CN(C)Cc1c[nH]c2c(N)ncnc12 [Example 11, (2S,3R)-1-(((4-amino-5H-pyrrolo[3,2-d]pyrimidin-7-yl)methyl)(methyl)amino)-4-(methylthio)butane-2,3-diol] |  | 202 ± 35 | 
9 | CSC[C@@H](CN(C)Cc1c[nH]c2c(N)ncnc12)[C@@H](O)CO [Example 4, (2R,3S)-4-(((4-amino-5H-pyrrolo[3,2-d]pyrimidin-7-yl)methyl)(methyl)amino)-3-(methylthiomethyl)butane-1,2-diol] |  | 2300 ± 600 | 
10 | CSC[C@H](CO)N[C@H](CO)c1c[nH]c2c(N)ncnc12 [Example 12, (S)-2-((S)-1-(4-amino-5H-pyrrolo[3,2-d]pyrimidin-7-yl)-2-hydroxyethylamino)-3-(methylthio)propan-1-ol] | 130 ± 20 | 154 ± 15 | 47 ± 4
